Reference: patent publication US7238670B2, “Human glucagon-like-peptide-1 mimics and their use in the treatment of diabetes and related conditions” (Bristol-Myers Squibb Company, priority 2001, dated 2007)
Read-outs that look alike come from different tables or passages of the source.

Target: T1, human glucagon-like peptide 1 receptor (Homo sapiens, UniProt P43220)
T1 construct: Full-length human glucagon-like peptide 1 receptor was stably expressed in CHO-K1 cells; expressed in transfected cells; host or cells: CHO-K1 (clone CHO-GLP1R-19)
T1 sequence (P43220 24-463): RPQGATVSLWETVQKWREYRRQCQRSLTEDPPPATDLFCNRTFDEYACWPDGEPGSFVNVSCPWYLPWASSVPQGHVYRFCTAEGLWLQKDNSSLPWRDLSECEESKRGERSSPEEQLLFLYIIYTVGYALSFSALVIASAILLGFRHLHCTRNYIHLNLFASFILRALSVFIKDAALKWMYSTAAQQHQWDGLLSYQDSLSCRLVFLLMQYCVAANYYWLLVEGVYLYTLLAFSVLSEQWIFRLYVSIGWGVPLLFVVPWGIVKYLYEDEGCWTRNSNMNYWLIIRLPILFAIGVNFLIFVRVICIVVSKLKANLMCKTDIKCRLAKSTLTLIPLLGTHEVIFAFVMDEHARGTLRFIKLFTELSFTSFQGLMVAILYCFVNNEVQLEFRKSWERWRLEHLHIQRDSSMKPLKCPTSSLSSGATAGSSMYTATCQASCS
Assay: Cyclic AMP determination in CHO-K1 cells stably expressing the GLP-1 receptor (cAMP SPA)
Assay type: cell-based
Conditions: CHO-GLP1R-19 cells, read-out: EC50, stimulation of cAMP production
Method: CHO-GLP-1R-19 cells (2,500 in 100 μl of media) were plated into each well of a 96-well tissue culture microtiter plate and incubated in 5% CO2 atmosphere at 37° C., for 72 h. On the day of the assay, cells were washed once with 100 μl of PBS. […] After incubation at room temperature for 15-18 h, plates were counted 2 min each/well in a TopCount NXT(Packard).
The data obtained was processed in Excel-fit database. From a cyclic AMP standard curve, the amounts of released cAMP were determined and the % maximal activity was calculated and plotted against log compound concentration. The data was analyzed by nonlinear regression curve fit (sigmoidal dose) to determine the EC50 of the compounds.

SMILES | EC50 (determined as in Example 13) [µM] | EC50 (same assay) [µM]
C[C@H](NC(=O)[C@@H](N)Cc1cnc[nH]1)C(=O)N[C@@H](CCC(=O)O)C(=O)NCC(=O)N[C@H](C(=O)N[C@@H](Cc1ccccc1)C(=O)N[C@H](C(=O)N[C@@H](CO)C(=O)N[C@@H](CC(=O)O)C(=O)N[C@@H](Cc1ccc(-c2ccccc2)cc1)C(=O)N[C@@H](Cc1ccc(-c2ccccc2)cc1)C(N)=O)[C@@H](C)O)[C@@H](C)O [GLP-1 11-mer peptide analog, His-Ala-Clu-Gly-Thr-Phe-Thr-Ser-Asp-Bip-Bip-NH2] | 1.1 | –
C[C@H](NC(=O)[C@@H](N)Cc1c[nH]cn1)C(=O)N[C@@H](CCC(=O)O)C(=O)NCC(=O)N[C@H](C(=O)N[C@@H](Cc1ccccc1)C(=O)N[C@H](C(=O)N[C@@H](CO)C(=O)N[C@@H](CC(=O)O)C(N)=O)[C@@H](C)O)[C@@H](C)O | – | > 1000
